According to patent publication US20230159489A1, “PHD INHIBITOR COMPOUNDS, COMPOSITIONS, AND USE” (Akebia Therapeutics, Inc., priority 2020, published 2023):

What was measured:
full-length human PHD1 = molecular target: T1, full-length human PHD1 (Homo sapiens, UniProt Q96KS0); assay: TR-FRET assay, enzymatic IC50 against PHD1; assay type: biochemical; also: 15 nM PHD1
T1 construct: FLAG (N); purchased Active Motif 81064; host or cells: baculovirus expression system
Description: PHD1 was expressed in a baculovirus expression system as the full-length protein (NCBI accession number NP_542770.2) with an N-terminal FLAG tag (molecular weight 44.9 kDa).

full-length human PHD3 = molecular target: T2, full-length human PHD3 (Homo sapiens, UniProt Q9H6Z9); assay: TR-FRET assay, enzymatic IC50 against PHD3; assay type: biochemical; also: 35 nM PHD3
T2 construct: 6-His (N); purchased Active Motif 81033; host or cells: E. coli
Description: Recombinant human PHD3 protein (molecular weight 31.1 kDa) was purchased from Active Motif (Carlsbad, Calif., USA). It was expressed in E. coli as the full-length protein (NCBI accession number NP_071356.1) with an N-terminal 6-His tag (catalog #81033, Lot #24417001).

full-length human PHD2 = full-length human PHD2 (Homo sapiens, UniProt Q9GZT9); assay: TR-FRET assay, enzymatic IC50 against PHD2
Chain of full-length human PHD2 (Q9GZT9 whole entry): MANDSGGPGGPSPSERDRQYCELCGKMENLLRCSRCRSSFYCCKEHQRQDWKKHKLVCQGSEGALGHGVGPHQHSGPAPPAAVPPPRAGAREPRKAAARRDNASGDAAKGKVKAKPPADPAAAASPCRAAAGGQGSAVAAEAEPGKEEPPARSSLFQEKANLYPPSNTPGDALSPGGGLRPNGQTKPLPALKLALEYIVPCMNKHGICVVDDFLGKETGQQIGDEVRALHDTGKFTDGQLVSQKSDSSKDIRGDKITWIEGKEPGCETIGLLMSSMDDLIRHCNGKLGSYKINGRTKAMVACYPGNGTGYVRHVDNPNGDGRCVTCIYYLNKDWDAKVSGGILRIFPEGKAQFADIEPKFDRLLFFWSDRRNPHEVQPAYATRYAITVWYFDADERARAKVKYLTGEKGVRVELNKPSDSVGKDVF
Description: Time-resolved fluorescence resonance energy transfer (TR-FRET) assay was utilized to determine the enzymatic half maximal inhibitory concentration (IC50) value of PHD inhibitors against the full-length human prolyl-4-hydroxylase domain (PHD) enzymes, PHD1, PHD2, and PHD3. The TR-FRET assay was developed based on the specific binding of hydroxylated HIF-1α peptide with the complex formed by VHL, EloB and EloC (VBC), to generate a fluorescent signal. Terbium (Tb)-Donor (monoclonal antibody anti-6His-Tb-cryptate Gold) and D2-acceptor (streptavidin [SA]-D2) of TR-FRET are linked to the VBC complex and to HIF-1α peptide, respectively. The VBC complex binds specifically to the HIF-1α peptide when it is hydroxylated, allowing energy transfer from TR-FRET donor to acceptor (FIG. 1). […] The plates were incubated for 30 minutes at room temperature without rotation. […] TR-FRET assays were performed in triplicate at each concentration of compound and the assays were repeated independently three times.

T1 sequence (Q96KS0 whole entry): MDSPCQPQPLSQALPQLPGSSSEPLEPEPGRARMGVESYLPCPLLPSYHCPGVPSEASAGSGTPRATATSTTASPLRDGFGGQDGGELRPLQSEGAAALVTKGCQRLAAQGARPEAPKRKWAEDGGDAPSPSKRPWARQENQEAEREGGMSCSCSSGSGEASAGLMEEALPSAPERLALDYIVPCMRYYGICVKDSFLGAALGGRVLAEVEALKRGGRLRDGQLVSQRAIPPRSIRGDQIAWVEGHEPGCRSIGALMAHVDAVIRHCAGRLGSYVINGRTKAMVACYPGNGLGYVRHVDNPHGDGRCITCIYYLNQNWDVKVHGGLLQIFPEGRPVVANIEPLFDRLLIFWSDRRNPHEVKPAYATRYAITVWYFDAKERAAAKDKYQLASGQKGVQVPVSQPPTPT
T2 sequence (Q9H6Z9 whole entry): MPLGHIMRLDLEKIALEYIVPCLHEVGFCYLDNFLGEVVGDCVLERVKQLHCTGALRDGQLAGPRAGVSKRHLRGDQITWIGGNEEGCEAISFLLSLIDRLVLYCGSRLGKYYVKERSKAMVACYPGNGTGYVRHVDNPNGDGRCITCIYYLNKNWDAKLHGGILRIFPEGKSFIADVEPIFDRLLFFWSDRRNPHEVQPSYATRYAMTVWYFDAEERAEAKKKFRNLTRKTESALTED

| SMILES | IC50 (full-length human PHD1) [nM] | IC50 (full-length human PHD3) [nM] | IC50 (full-length human PHD2) [nM] |
| --- | --- | --- | --- |
| CN=S(C)(=O)c1ccc(-n2nc(C)c(-c3ccc(C#N)cc3)c2O)nc1 (stereo not drawn) [Compound 15, 4-(1-(5-(N,S-dimethylsulfonimidoyl)pyridin-2-yl)-5-hydroxy-3-methyl-1H-pyrazol-4-yl)benzonitrile] | < 100 | < 100 | < 100 |
| CS(=O)(=O)c1ccc(-n2nc(C3CC3)c(-c3ccc(C#N)cc3)c2O)nc1 [Compound 5, 4-(3-cyclopropyl-5-hydroxy-1-(5-(methylsulfonyl)pyridin-2-yl)-1H-pyrazol-4-yl) benzonitrile] | 100 to 1000 | > 10000 | 1000 to 10000 |
| Cc1nn(-c2ccc(S(=O)(=O)c3ccccc3)cn2)c(O)c1-c1ccc(C#N)cc1 [Compound 8, 4-(5-hydroxy-3-methyl-1-(5-(phenylsulfonyl)pyridin-2-yl)-1H-pyrazol-4-yl)benzonitrile] | < 100 | 100 to 1000 | < 100 |
| Cc1nn(-c2ccc(C(=O)C(C)C)cn2)c(O)c1-c1ccc(C#N)cc1 [Compound 10, 4-(5-hydroxy-1-(5-isobutyrylpyridin-2-yl)-3-methyl-1H-pyrazol-4-yl)benzonitrile] | < 100 | 100 to 1000 | < 100 |
| CCc1nn(-c2ccc(S(C)(=O)=O)cn2)c(O)c1-c1ccc(C#N)cc1 [Compound 4, 4-(3-ethyl-5-hydroxy-1-(5-(methylsulfonyl)pyridin-2-yl)-1H-pyrazol-4-yl)benzonitrile] | < 100 | 1000 to 10000 | < 100 |
| Cc1nn(-c2ccc(NS(C)(=O)=O)cn2)c(O)c1-c1ccc(C#N)cc1 [Compound 6, N-(6-(4-(4-cyanophenyl)-5-hydroxy-3-methyl-1H-pyrazol-1-yl)pyridin-3-yl) methanesulfonamide] | < 100 | < 100 | < 100 |
